Results taken from patent publication US10329295B2, “Pyrrolotriazine inhibitors of IRAK4 activity” (MERCK SHARP & DOHME CORP., priority 2015, dated 2019).
pIC50: −log10 of the molar value. Structures can show the parent of a compound that is named as a salt.

Target: GST tagged IRAK4 (Homo sapiens (Human), UniProt Q9NWZ3)
Test: IRAK4 Kinase Assay (IMAP fluorescence polarization)
Type: biochemical
Settings: 0.5 nM GST tagged IRAK4, 100 μM ATP, 30 minutes at 25° C.
How it was run: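 Phosphorylation of a fluorescent peptide (100 nM) was detected by IMAP nanoparticle binding as increased fluorescence polarization. The enzyme was GST-tagged IRAK4 at 0.5 nM, with 100 μM ATP, 1 mM MgCl2 and Tris-HCl pH 7.2. ATP-initiated reactions ran 30 minutes at 25° C.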

GST tagged IRAK4, sequence (Q9NWZ3 whole entry): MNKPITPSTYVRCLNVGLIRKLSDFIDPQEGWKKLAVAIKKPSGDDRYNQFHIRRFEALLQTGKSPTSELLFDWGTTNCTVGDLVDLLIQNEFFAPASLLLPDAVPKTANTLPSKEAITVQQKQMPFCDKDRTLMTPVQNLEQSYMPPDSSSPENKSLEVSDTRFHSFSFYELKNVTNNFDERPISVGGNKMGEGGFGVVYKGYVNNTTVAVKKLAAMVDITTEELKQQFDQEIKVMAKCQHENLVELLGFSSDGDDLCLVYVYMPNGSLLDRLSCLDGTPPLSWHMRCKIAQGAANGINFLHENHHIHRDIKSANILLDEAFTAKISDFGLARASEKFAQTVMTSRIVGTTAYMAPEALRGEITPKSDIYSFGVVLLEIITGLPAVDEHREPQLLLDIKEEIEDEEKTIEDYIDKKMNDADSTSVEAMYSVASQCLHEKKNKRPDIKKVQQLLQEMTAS

| Structure (SMILES) | pIC50 |
| --- | --- |
| Cn1cc(NC(=O)c2ccc3cnc(N4CC5CCC(C4)N5)nn23)c(C(F)(F)F)n1 [Example 82, 2-(3,8-diazabicyclo[3.2.1]oct-3-yl)-N-[1-methyl-3-(trifluoromethyl)-1H-pyrazol-4-yl]pyrrolo[2,1-f][1,2,4]triazine-7-carboxamide trifluoroacetate] | 7.49 |
| Cn1cc(NC(=O)c2ccc3cnc(N4CCCNCC4)nn23)c(C#N)n1 [Example 34, N-(3-cyano-1-methyl-1H-pyrazol-4-yl)-2-(1,4-diazepan-1-yl)pyrrolo[2,1-f][1,2,4]triazine-7-carboxamide trifluoroacetate] | 6.45 |
| Cn1cc(NC(=O)c2ccc3cnc(N4C5CCC4CNC5)nn23)c(C(F)F)n1 [Example 121, 2-(3,8-diazabicyclo[3.2.1]oct-8-yl)-N-[3-(difluoromethyl)-1-methyl-1H-pyrazol-4-yl]pyrrolo[2,1-f][1,2,4]triazine-7-carboxamide trifluoroacetate] | 9.30 |
| N#Cc1sccc1NC(=O)c1ccc2cnc(N[C@@H]3CCCNC3)nn12 [Example 146, N-(2-cyanothiophen-3-yl)-2-[(3R)-piperidin-3-ylamino]pyrrolo[2,1-f][1,2,4]triazine-7-carboxamide trifluoroacetate] | 8.40 |
| Cn1cc(NC(=O)c2ccc3cnc(N[C@@H]4CCCNC4)nn23)c(C(F)F)n1 [Example 16, N-[3-(difluoromethyl)-1-methyl-1H-pyrazol-4-yl]-2-[(3R)-piperidin-3-ylamino]pyrrolo[2,1-f][1,2,4]triazine-7-carboxamide trifluoroacetate] | 9.00 |
| O=C(Nc1cscc1C(F)F)c1ccc2cnc(N3C[C@@H]4CC[C@H]3CN4)nn12 (single isomer, unassigned) [Example 80, 2-[(1S,4S)- or (1R,4R)-2,5-diazabicyclo[2.2.2]oct-2-yl]-N-[4-(difluoromethyl)thiophen-3-yl]pyrrolo[2,1-f][1,2,4]triazine-7-carboxamide trifluoroacetate] | 6.76 |
| Cn1cc(NC(=O)c2ccc3cnc(NC4CCCCNC4)nn23)c(C(F)(F)F)n1 (stereo not shown) [Example 10, 2-(azepan-3-ylamino)-N-[1-methyl-3-(trifluoromethyl)-1H-pyrazol-4-yl]pyrrolo[2,1-f][1,2,4]triazine-7-carboxamide trifluoroacetate] | 8.40 |
| N#Cc1ccccc1NC(=O)c1ccc2cnc(N3C[C@H]4CC[C@@H]3CN4)nn12 (single isomer, unassigned) [Example 75, N-(2-cyanophenyl)-2-[(1S,4S)- or (1R,4R)-2,5-diazabicyclo[2.2.2]oct-2-yl]pyrrolo[2,1-f][1,2,4]triazine-7-carboxamide trifluoroacetate] | 5.40 |
| Cn1cc(NC(=O)c2ccc3cnc(N4CCNCC5(CC5)C4)nn23)c(C(F)(F)F)n1 [Example 9, 2-(5,8-diazaspiro[2.6]non-5-yl)-N-[1-methyl-3-(trifluoromethyl)-1H-pyrazol-4-yl]pyrrolo[2,1-f][1,2,4]triazine-7-carboxamide trifluoroacetate] | 8.15 |
| Cn1cc(NC(=O)c2ccc3cnc(N4CCC[C@@H](N)C4)nn23)c(C(F)(F)F)n1 [Example 7, 2-[(3R)-3-aminopiperidin-1-yl]-N-[1-methyl-3-(trifluoromethyl)-1H-pyrazol-4-yl]pyrrolo[2,1-f][1,2,4]triazine-7-carboxamide trifluoroacetate] | 9.05 |
| O=C(Nc1ccsc1C(F)(F)F)c1ccc2cnc(N3C[C@@H]4CC[C@H]3CN4)nn12 (single isomer, unassigned) [Example 86, 2-[(1S,4S)- or (1R,4R)-2,5-diazabicyclo[2.2.2]oct-2-yl]-N-[2-(trifluoromethyl)thiophen-3-yl]pyrrolo[2,1-f][1,2,4]triazine-7-carboxamide trifluoroacetate] | 5.64 |
| Cn1cc(NC(=O)c2ccc3cnc(N[C@@H]4CCCC(F)(F)[C@@H]4N)nn23)c(Cl)n1 [Example 79, 2-{[(1R,2R)-2-amino-3,3-difluorocyclohexyl]amino}-N-(3-chloro-1-methyl-1H-pyrazol-4-yl)pyrrolo[2,1-f][1,2,4]triazine-7-carboxamide trifluoroacetate] | 6.64 |
| Cn1cc(NC(=O)c2ccc3cnc(N4C[C@@H]5CNC[C@H]4C5)nn23)c(C(F)(F)F)n1 (single isomer, unassigned) [Example 116, 2-[(1S,5R)- or (1R,5S)-3,6-diazabicyclo[3.2.1]oct-6-yl]-N-[1-methyl-3-(trifluoromethyl)-1H-pyrazol-4-yl]pyrrolo[2,1-f][1,2,4]triazine-7-carboxamide] | 7.35 |
| Cn1cc(NC(=O)c2ccc3cnc(N4CCCNCC4)nn23)c(Br)n1 [Example 67, N-(3-bromo-1-methyl-1H-pyrazol-4-yl)-2-(1,4-diazepan-1-yl)pyrrolo[2,1-f][1,2,4]triazine-7-carboxamide trifluoroacetate] | 7.41 |
| O=C(Nc1ccccc1Br)c1ccc2cnc(N3C[C@@H]4CC[C@H]3CN4)nn12 (single isomer, unassigned) [Example 84, N-(2-bromophenyl)-2-[(1S,4S)- or (1R,4R)-2,5-diazabicyclo[2.2.2]oct-2-yl]pyrrolo[2,1-f][1,2,4]triazine-7-carboxamide trifluoroacetate] | 5.11 |
| Cn1cc(NC(=O)c2ccc3cnc(N4C[C@@H](N)C[C@@H](F)C4)nn23)c(C(F)F)n1 [Example 151, 2-[(3S,5R)-3-amino-5-fluoropiperidin-1-yl]-N-[3-(difluoromethyl)-1-methyl-1H-pyrazol-4-yl]pyrrolo[2,1-f][1,2,4]triazine-7-carboxamide formate] | 9.10 |
| N#Cc1sccc1NC(=O)c1ccc2cnc(N[C@@H]3CCCC[C@@H]3N)nn12 [Example 21, 2-{[(1R,2S)-2-aminocyclohexyl]amino}-N-(2-cyanothiophen-3-yl)pyrrolo[2,1-f][1,2,4]triazine-7-carboxamide trifluoroacetate] | 9.00 |
| O=C(Nc1cscc1C(F)F)c1ccc2cnc(N3C[C@H]4CC[C@@H]3CN4)nn12 (single isomer, unassigned) [Example 81, 2-[(1S,4S)- or (1R,4R)-2,5-diazabicyclo[2.2.2]oct-2-yl]-N-[4-(difluoromethyl)thiophen-3-yl]pyrrolo[2,1-f][1,2,4]triazine-7-carboxamide trifluoroacetate] | 7.20 |
| Cn1cc(NC(=O)c2ccc3cnc(N[C@H]4CC(F)(F)CC[C@H]4N)nn23)c(C(F)F)n1 (single isomer, unassigned) [Example 130, 2-{[(1S,2R)- or (1R,2S)-2-amino-5,5-difluorocyclohexyl]amino}-N-[3-(difluoromethyl)-1-methyl-1H-pyrazol-4-yl]pyrrolo[2,1-f][1,2,4]triazine-7-carboxamide] | 6.18 |
